Literature values, collected in US20100233259A1, “DOSAGE FORM OF ROPINIROLE” (priority 2008, published 2010).

Conditions: in vivo

For CCCN(CCC)CCc1cccc2c1CC(=O)N2 [Ropinirole], the half life is listed as 5 to 6 h.
